Experimental data taken from patent publication US12377127B2, “Treatment for diseases caused by RNA virus SARS-CoV-2” (Amerimmune, LLC, priority 2020, dated 2025).

Assays:
Caspase 1 [1] = molecular target: T1, Caspase 1 (Homo sapiens, UniProt P29466); assay: Ex vivo stimulation: active caspase-1 in CD4 T (T-helper) cells after whole blood incubation with caspase inhibitors (Example 9); assay type: cell-based; settings: inhibitor 24 hrs, then with or without nigericin; for T-helper cell caspase-1 expression: COVID-19 whole blood samples
T1 construct: A Fam-FLICA probe specific for Caspase 1 was directly added to 50 μl PBMC; endogenous in cells; host or cells: PBMC (CD3-, CD3+, CD3+CD4+ lymphocytes) purified from human whole blood
T1 sequence (P29466 120-297 limits assumed): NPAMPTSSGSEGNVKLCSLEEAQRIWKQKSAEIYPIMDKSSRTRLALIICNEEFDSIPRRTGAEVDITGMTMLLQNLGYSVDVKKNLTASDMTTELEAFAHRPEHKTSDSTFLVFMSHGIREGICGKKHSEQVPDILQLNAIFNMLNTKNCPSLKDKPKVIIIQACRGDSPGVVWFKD
T1 sequence (P29466 317-404 limits assumed): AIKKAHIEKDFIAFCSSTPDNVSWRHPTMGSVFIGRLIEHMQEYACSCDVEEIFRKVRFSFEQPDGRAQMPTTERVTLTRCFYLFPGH
Experimental: Apoptosis and pyroptosis were measured by flow cytometry using fluorescent-labeled inhibitors of caspase probe assay (FLICA; Immunochemistry Technologies, Minneapolis, MN). As a control, PBMCs were stimulated with nigericin for 2 hours. FAM-FLICA probes specific for caspase-1 was added to 50 μl PBMC and incubated for 1h at 37° C. Cells were subsequently washed and stained for CD45 PE-CY7 [HI30], CD3 AF700 [UCHT1], CD4 PE [RPA-T4], CD45RO PerCP-EF710 [UCHL1], and Viability Dye 780 (Thermo Fisher Scientific, Carlsbad, CA). Samples were acquired on a 3 laser BD FACS Canto 10. CS&T beads (BD Bioscience, San Jose, CA) were acquired daily to ensure consistent performance of the Canto10. The CANTO10 utilized for this study was validated for T, B, NK, and dendritic cell immunophenotyping clinical diagnostic testing. Denovo FCS Express v6 clinical edition (De Novo Software, Pasadena, CA) was used for flow cytometric analyses.
Active caspase-1 in COVID-19+ patient samples. Whole blood from a COVID-19 positive patient was either (A) untreated or (B) treated with emricasan (1 μM, Sigma Aldrich, MO, SML2227-5MG) or selective caspase-1 inhibitor VX765 overnight at 37° C. in a water bath. Subsequently, PBMCs were purified (Accuspin System—Histopaque 1077; Sigma Aldrich, MO, A6929) and incubated with nigericin (Immunochemistry Technologies, MN) for 2h. A Fam-FLICA probe specific for active caspase-1 was added to 50 μl PBMC and then incubated for 1h at 37° C. PMBCs were washed with cell wash buffer (Immunochemistry Technologies, MN) and stained with CD45 PE-CY7 [H130], CD3 AF700 [UCHT1], CD4 PE [RPA-T4], CD45RO PerCP-EF710 [UCHL1], and Viability Dye 780 (Thermo Fisher Scientific, Carlsbad, CA). Lymphocytes were identified using a standard gating schematic that incorporated gating of lymphocytes on an FSC/SSC plot and singlets on a FSC-A/FSC-H plot. Lymphocytes were further identified as CD45+ on a CD45/SSC plot and subsequent CD3−, CD3+ and CD3+CD4+ cells were identified on a CD45+ CD3/CD4 plot. Shown are the active caspase-1 MFI and % positive for the three cellular populations indicated. […]

Caspase 1 [2] = molecular target: T1, Caspase 1; assay: Active caspase-1 by FAM-FLICA flow cytometry in PBMCs from Emricasan-treated COVID-19(+) whole blood (Example 7); assay type: cell-based; settings: 1 μM
Experimental: Whole blood from COVID-19(+) patients was incubated either (A) without addition of Emricasan (Untreated) or (B) with Emricasan (Sigma Aldrich, MO, SML2227-5MG), 1 μM final concentration for 3.5 hours at room temperature (Treated). Following incubation with or without Emricasan, PBMCs were purified using an Accuspin System—Histopaque 1077 (Sigma Aldrich, MO, A6929) as per the manufacturer's instructions. Purified Treated and Untreated PBMCs were incubated with nigericin (Immunochemistry Technologies, MN) as per the manufacturer's instructions for 2 hours. A Fam-FLICA probe specific for Caspase 1 was directly added to 50 μl PBMC and then incubated for 1 hour at 37° C. PMBCs were washed with cell wash buffer (Immunochemistry Technologies, MN) to remove unbound FLICA probes. Washed PBMCs were FACS-sorted using CD45 PE-CY7 [H130], CD3 AF700 [UCHT1], CD4 PE [RPA-T4], CD45RO PerCP-EF710 [UCHL], and Viability Dye 780 (Thermo Fisher Scientific, Carlsbad, CA) to identify viable CD3−cells as well as CD3+ cells and CD3+ CD4+ T cells. Lymphocytes were identified using a standard gating schematic that incorporated gating of lymphocytes on a FSC/SSC plot and singlets on a FSC-A/FSC-H plot. Lymphocytes were further identified as CD45+ on a CD45/SSC plot and subsequent CD3−, CD3+, and CD3+ CD4+ cells were identified on a CD45+ CD3/CD4 plot.
In another experiment, whole blood was incubated with 1 μM Emricasan for 17 hours (overnight between 5 PM to 10 AM) at room temperature on a rocker. The same experiment described above to examine active caspase 1 in PBMCs was performed.

caspase-3 = molecular target: T2, caspase-3 (Homo sapiens, UniProt P42574); assay: Caspase-3 in RBCs incubated with patient plasma (Example 9); assay type: cell-based
T2 construct: EMR suppressed the caspase-3 up-regulation in the COVID-19 plasma incubated samples; endogenous in cells; host or cells: human red blood cells (healthy subjects' RBCs incubated with patient plasma)
T2 sequence (P42574 29-277): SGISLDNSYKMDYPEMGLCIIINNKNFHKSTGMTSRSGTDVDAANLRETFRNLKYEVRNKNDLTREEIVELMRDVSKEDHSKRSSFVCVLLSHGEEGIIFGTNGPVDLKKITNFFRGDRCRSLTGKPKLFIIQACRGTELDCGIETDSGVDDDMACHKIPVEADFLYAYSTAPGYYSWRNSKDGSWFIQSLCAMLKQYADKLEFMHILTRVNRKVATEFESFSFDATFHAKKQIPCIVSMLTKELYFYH
Experimental: Plasma was separated from whole blood following centrifugation at 960 RCF. Cells (RBC and WBC) were either incubated at 37° C. alone or in the presence of trypsin for 1 hour then washed with 10 packed cell volumes of RPMI 1640 incomplete medium. Plasma was either held at room temperature (18-25° C.) or heat inactivated at 56° C. for 1 hr. Plasma was added back to the RBC/WBC in a 1:1 ratio and incubated overnight, rocking at room temperature.
Cellular caspases are not limited to immune cells. […] In the process of Ficoll separation, a layer of RBCs contaminating the PBMC layer was observed, which layer was universally present in all samples from COVID-19 individuals (FIG. 6A). This finding was also present in up to 80% of COVID-19 convalescent subjects. Plasma from acutely infected subjects induced a similar finding when incubated overnight with plasma depleted whole blood of healthy patients.

[3] = test system: red blood cell (RBC) layer in the PBMC layer ("red ring"); assay type: cell-based, human; settings: PBMCs from COVID-19 patient samples, 1 micromolar, room temperature, 17 hours
[4] = COVID-19(+) whole blood, 3.5 hours, room temperature, nigericin 2 hours, CD3-, CD3+, CD3+CD4+ cells, vs untreated, p≤0.005

SMILES	T-helper cell caspase-1 expression (Caspase 1 [1])	active caspase-1 % positive cells (Caspase 1 [2]; [4])	active caspase-1 MFI (Caspase 1 [2]; [4])	inhibition of nigericin-induced Caspase-1 activity (Caspase 1 [2]; whole blood, 17 hours (overnight), room temperature on a rocker, 3 samples from COVID-19 patients)	RBC caspase-3 up-regulation (caspase-3; healthy subjects' RBCs incubated with COVID-19 plasma)	RBC caspase-3 baseline expression levels (caspase-3; influenza-plasma incubated samples)	T-helper cell caspase-1 upregulation (Caspase 1 [1]; healthy subjects' whole blood)	"red ring" (RBC layer contaminating PBMCs) [3]
CCO[C@@H]1OC(=O)C[C@@H]1NC(=O)[C@@H]1CCCN1C(=O)[C@@H](NC(=O)c1ccc(N)c(Cl)c1)C(C)(C)C [VX765, Belnacasan]	did not show a strong similar suppressive effect							
C[C@H](NC(=O)C(=O)Nc1ccccc1C(C)(C)C)C(=O)N[C@@H](CC(=O)O)C(=O)COc1c(F)c(F)cc(F)c1F [Emricasan, (3S)-3-{[(2S)-2-{[2-(2-tert-butylanilino)-2-oxoacetyl]amino}propanoyl]amino}-4-oxo-5-(2,3,5,6-tetrafluorophenoxy)pentanoic acid]	suppressed	significant reduction	significant reduction	seen in only ⅓ sample	suppressed	did not change	prevented its upregulation	decrease
